Measurements reported in PMC4259358, “Functional Characterization of Nuclear Localization and Export Signals in Hepatitis C Virus Proteins and Their Role in the Membranous Web” (PLoS ONE, 2014).
Ends that are not written are not given here.

Assays:
[1] = tested on: IPO5 (importin β3/kap β3); test: HCV genotype 1 peptide array probed with Huh7.5 cell lysate; assay type: binding; details: array of 15 residue peptides (8 residue overlaps), Huh7.5 lysate, anti-IPO5 antibody; a peptide bound
Method: (§1) However, various HCV proteins contain putative NLSs and NESs, [41], [53]. To identify potential interactions between cellular NTFs and HCV proteins, we designed a peptide array spanning the entire HCV genotype 1 consensus polyprotein sequence. These arrays were incubated with or without cell lysates and then probed using specific antibodies for components of the nuclear transport machinery. We detected binding of IPOA5 (importin α5/kap α1), IPO5 (importin β3/kap β3) and XPO1 (CRM1), but not IPO1 (importin β1/kap β1), to eleven distinct regions within HCV proteins (Fig. 1A, Table 1). All of the antibodies were also tested by western blotting of cell lysates to validate that they detected the corresponding NTF (Fig. 1B).
(§2) Figure 1 Identification of sequences within the HCV polyprotein that bind nuclear transport factors. (A) HCV genotype 1 peptide arrays consisting of 15 residue peptides (with 8 residue overlaps) spanning the complete HCV polypeptide were incubated with Huh7.5 cells lysates. Bound NTFs were detected using antibodies specific for the indicated NTF. Control peptide arrays were incubated with only NTF-specific antibodies. The different colored regions of the array represent peptides derived from different HCV proteins (see schematic). The last four peptides on the array are additional sequences which some of the HCV strains have in their polyproteins at the C terminus. (B) The same lysate used to probe the peptide arrays was also analyzed by western blotting to detect the indicated NTFs and assess the specificities of the antibodies. (C) Schematic summary of the localization of the NTF binding sites on the indicated HCV proteins.
(§3) A consensus sequence of HCV Genotype 1 polyprotein was used to design consecutive fifteen amino-acid residue peptides with eight residue overlaps along the complete polyprotein sequence. Peptides were synthesised by Intavis Bioanalytical Instruments (Koeln, Germany) using a CelluSpots peptide array synthesis technology. Peptide arrays were incubated in blocking buffer (TBS containing 0.05% tween 20 (v/v) and 10% skim milk (g/v)) overnight at 4°C on a gentle shaker. Following the blocking, the peptide arrays were washed three times with washing buffer (TBS containing 0.05% tween 20 (v/v)) for 5 min at room temperature on a gentle shaker. The peptide arrays were then incubated for 4 h with cell lysate from two T-75 flasks of fully confluent cells lysed by lysis buffer (10 mM Tris-HCl, pH 7.5, 150 mM NaCl, 2 mM EDTA, 0.1% Triton-X100, 1 mM PMSF, 2 µg/ml aprotinin, 2 µg/ml leupeptin and 0.1 units/µl RNasin) mixed with blocking buffer (ratio 1∶1 v/v) and incubated at room temperature on a gentle shaker. Following this incubation, peptide arrays were rinsed with washing buffer for 30 sec and then washed five times in washing buffer and each wash lasted for 5 min at room temperature on a gentle shaker. Following washing, the peptide arrays were incubated with the primary antibody as indicated in Fig. 1 (1∶100 dilution) for 4 h at room temperature on a gentle shaker. Arrays were then rinsed, washed as described above, and incubated with a complementary HRP conjugated secondary antibody (1∶1000) for 2 h at room temperature on a gentle shaker. The peptide arrays were then rinsed and washed as described above followed by initiation of HRP chemiluminescence with ECL detection reagent (GE Healthcare, RPN2106) and the signal was detected using Fuji RX film (Fujifilm, 47410 08399).

[2] = tested on: IPOA5 (importin α5/kap α1); test: as above; assay type: binding; details: array of 15 residue peptides (8 residue overlaps), Huh7.5 lysate, anti-IPOA5 antibody; a peptide bound
Method: as §1, §2, §3

XPO1 (CRM1) = test: as above; assay type: binding; details: array of 15 residue peptides (8 residue overlaps), Huh7.5 lysate, anti-XPO1 antibody; a peptide bound
Method: as §1, §2, §3

IPOA5 = molecular target: T1, IPOA5 (Homo sapiens, UniProt P52294); test: biochemical; assay type: binding
T1 construct: Expression and purification of full length IPOA5, IPO5 were perform according to methods described previously; His tag; made in house; host or cells: Escherichia coli BL21(DE3), pET21 vector
T1 sequence (P52294 whole entry): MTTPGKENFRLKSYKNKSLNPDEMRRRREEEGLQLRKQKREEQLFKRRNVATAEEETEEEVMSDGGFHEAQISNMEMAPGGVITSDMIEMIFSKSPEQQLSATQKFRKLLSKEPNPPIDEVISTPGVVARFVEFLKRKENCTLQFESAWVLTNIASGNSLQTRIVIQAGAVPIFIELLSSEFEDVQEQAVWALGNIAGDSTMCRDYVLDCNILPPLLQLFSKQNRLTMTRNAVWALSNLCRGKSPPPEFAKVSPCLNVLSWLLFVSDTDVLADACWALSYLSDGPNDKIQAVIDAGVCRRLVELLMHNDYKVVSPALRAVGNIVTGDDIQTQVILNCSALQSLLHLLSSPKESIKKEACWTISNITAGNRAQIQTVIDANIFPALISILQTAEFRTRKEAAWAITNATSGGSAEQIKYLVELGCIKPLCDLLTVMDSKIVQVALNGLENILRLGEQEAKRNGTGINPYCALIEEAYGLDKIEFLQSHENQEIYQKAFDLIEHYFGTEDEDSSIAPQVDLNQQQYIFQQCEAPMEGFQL

IPO5 = molecular target: T2, IPO5 (Homo sapiens, UniProt O00410); test: biochemical; assay type: binding
T2 construct: Expression and purification of full length IPOA5, IPO5 were perform according to methods described previously; His tag; made in house; host or cells: Escherichia coli BL21(DE3), pET21 vector
T2 sequence (O00410 whole entry): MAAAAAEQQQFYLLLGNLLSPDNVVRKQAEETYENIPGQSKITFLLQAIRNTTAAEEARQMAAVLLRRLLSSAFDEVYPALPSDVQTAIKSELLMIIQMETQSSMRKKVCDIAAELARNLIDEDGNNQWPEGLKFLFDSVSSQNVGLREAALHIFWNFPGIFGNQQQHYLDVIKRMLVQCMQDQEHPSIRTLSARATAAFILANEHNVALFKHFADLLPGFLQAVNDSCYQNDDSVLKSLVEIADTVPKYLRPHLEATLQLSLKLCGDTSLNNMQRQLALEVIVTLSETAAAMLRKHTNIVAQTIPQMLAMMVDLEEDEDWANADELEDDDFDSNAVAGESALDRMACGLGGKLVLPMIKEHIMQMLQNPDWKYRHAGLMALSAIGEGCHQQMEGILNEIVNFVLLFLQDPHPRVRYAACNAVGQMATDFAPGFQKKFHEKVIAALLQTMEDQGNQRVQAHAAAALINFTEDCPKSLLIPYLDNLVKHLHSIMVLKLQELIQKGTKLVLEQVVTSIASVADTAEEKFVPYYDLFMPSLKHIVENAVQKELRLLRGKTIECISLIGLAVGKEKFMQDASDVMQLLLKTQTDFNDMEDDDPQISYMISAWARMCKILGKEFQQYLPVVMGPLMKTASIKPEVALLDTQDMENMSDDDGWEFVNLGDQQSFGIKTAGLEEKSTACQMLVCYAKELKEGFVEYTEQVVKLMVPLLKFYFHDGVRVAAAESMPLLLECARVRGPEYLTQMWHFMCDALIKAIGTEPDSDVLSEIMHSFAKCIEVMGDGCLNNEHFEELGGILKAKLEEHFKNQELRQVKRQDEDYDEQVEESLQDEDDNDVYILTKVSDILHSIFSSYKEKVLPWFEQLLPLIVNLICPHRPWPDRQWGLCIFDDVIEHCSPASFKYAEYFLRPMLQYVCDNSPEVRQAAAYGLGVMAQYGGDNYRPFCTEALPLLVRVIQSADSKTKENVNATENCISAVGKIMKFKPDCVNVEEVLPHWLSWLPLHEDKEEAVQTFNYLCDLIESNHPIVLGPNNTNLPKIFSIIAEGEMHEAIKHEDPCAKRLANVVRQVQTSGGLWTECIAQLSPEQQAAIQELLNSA

HEK293T cells = test: Localization of nuclear transport signal-double GFP reporter in HEK293T cells; assay type: cell-based; design: key: +++ for strong; ++ for moderate; + for weak; − for no localization; details: double GFP cargo, 24 h post transfection, fluorescence quantified with ImageJ (S6, S7 Figures); NES/SEN on SV40 NLS double GFP
Text: To determine whether NTF binding sites found in the HCV proteins were functional nuclear transport signals, we constructed reporter proteins each consisting of one of the HCV proteins NTF binding sites followed by two C-terminal, tandemly repeated GFP molecules. The double GFP moieties were required to keep the reporter from entering the nucleus, since a single GFP is small enough to diffuse freely through NPCs, [35]. As controls, constructs containing the reversed amino-acid residue sequence of the potential NLS (SLN) were also examined using the double GFP reporter assay (S5 Figure). These SLN reporters were predicted to not accumulate in the nucleoplasm. In addition, reporters to examine the functionality of the potential XPO1 binding domains were also constructed. These reporters consist of an SV40 NLS and a double GFP molecule followed by one of the various potential NESs at the C-terminus (S5 Figure). In the absence of a functional NES, this reporter will accumulate in the nucleus. However, a functional NES is predicted to export the reporter, leading to increased steady-state levels of the reporter in the cytoplasm.
Figure 4 Functionality of the putative nuclear transport signals in cells. Cells were transfected by the vectors encoding a nuclear transport reporter consisting of a tandemly repeated double GFP fused to the indicated C-terminal nuclear transport signal (panels A-N). At 24 h following transfection, cells were fixed and stained with Hoechst to visualize the nucleus. Cells were examined using a Zeiss inverted Axiovert 200 M microscope to assess the localization of the GFP (green) and its relationship to the nucleus (blue). A hashed yellow square demarcates the magnified area shown in the right-most image of each panel. Fluorescent intensity was quantified using ImageJ v. […] Analysis of the reverse sequences of each transport signal as well as the mutant SV40 NLS was also performed and the results are shown in S7 Figure.
Nuclear transport signals-double GFP constructs were transfected into HEK293T cells using lipofectamine 2000. At 24 h post transfection cells were fixed, stained, and visualized for localization of the GFP. For detailed information see S1 Methods.
Nuclear transport signal-double GFP constructs were transfected into HEK293T cells using lipofectamine 2000 reagent (Invitrogen, 11668019). At 24 h post transfection cells were fixed with 3.76% formaldehyde at room temperature (Sigma, F8775-500ML) for 8 min then permeabilized in 0.2% Triton X-100 (VWR, CA97062-208) for 2 min. Cells were washed three times with X1 PBS and were stained with Hoechst 1:5000 in X1 PBS for 5 min followed by three washes with X1 PBS. The cells were visualized using a Zeiss inverted Axiovert 200M microscope with a 20x/0.8 objective lens to examine localization of the GFP. At least ten random fields of cells were imaged for each combination. Channels were merged using ImageJ software (National Institutes of Health). Photoshop Elements 10 (Adobe) software was used to adjust brightness and contrast levels for individual images and to assemble images into figures.

Molecule	Binds to IPO5 [1]	Binding to IPOA5 [2]	also measured
IPKDRRSTGKAWGKP [A9, HCV genotype 1 array peptide, core residues 65-79]	A9: 65-[…]-79	A9: 65-[…]-79	
GVYLLPRRGPRLGVR [A5, HCV genotype 1 array peptide, core residues 33-47]	A5: 33-[…]-47	A5: 33-[…]-47	
LPGFPFSIFLLALLS [A22, HCV genotype 1 array peptide, core residues 169-183]			Binding to XPO1 (XPO1 (CRM1)): A22: 169-[…]-183
KVIDTLTCGFADLMG [A16, HCV genotype 1 array peptide, core residues 121-135]			Binding to XPO1 (XPO1 (CRM1)): A16: 121-[…]-135
RKTKRNTNRRPEDVK [A2, HCV genotype 1 array peptide, core residues 9-23]	A2: 9-[…]-23	A2: 9-[…]-23	
PARRRGDKRGALLSP [F24]	F24: 1145-[…]-1159		
RSQRRGRTTGRGRRQIKIWFQNRRMKWKK [NS3 NLS 2]			Kd (IPOA5): 0.0366 ± 0.00713 µM; Kd (IPO5): 0.0358 ± 0.00726 µM
CC[C@H](C)[C@H](NC(=O)[C@H](CCCCN)NC(=O)[C@@H](NC(=O)[C@H](CCC(N)=O)NC(=O)[C@H](CCCNC(=N)N)NC(=O)CNC(=O)[C@H](Cc1c[nH]c2ccccc12)NC(=O)[C@@H](NC(=O)[C@@H](NC(=O)[C@@H](NC(=O)[C@H](CCCCN)NC(=O)[C@H](CCCCN)NC(=O)[C@H](CCC(=O)O)NC(=O)[C@H](CCSC)NC(=O)[C@@H]1CCCN1C(=O)[C@H](CO)NC(=O)[C@H](Cc1ccccc1)NC(=O)[C@@H](NC(=O)[C@@H](NC(=O)[C@@H]1CCCN1)[C@@H](C)CC)[C@@H](C)CC)C(C)C)[C@@H](C)CC)C(C)C)[C@@H](C)CC)C(=O)N[C@@H](Cc1c[nH]c2ccccc12)C(=O)N[C@@H](Cc1ccccc1)C(=O)N[C@@H](CCC(N)=O)C(=O)N[C@@H](CC(N)=O)C(=O)N[C@@H](CCCNC(=N)N)C(=O)N[C@@H](CCCNC(=N)N)C(=O)N[C@@H](CCSC)C(=O)N[C@@H](CCCCN)C(=O)N[C@@H](Cc1c[nH]c2ccccc12)C(=O)N[C@@H](CCCCN)C(=O)N[C@@H](CCCCN)C(=O)O [NS2 NLS]			Kd (IPOA5): 0.0793 ± 0.00389 µM
PSWGPTDPRHRSRNV [A14, HCV genotype 1 array peptide, core residues 105-119]	A14: 105-[…]-119		
TLLGQCLWWLCYLLT [E10]			Binding to XPO1 (XPO1 (CRM1)): E10: 841-[…]-855
RRRTVGLSESTISEA [M4]	M4: 2329-[…]-2343		
TIFYQLWWILRALFLKYHPSLTLLILRQIKIWFQNRRMKWKK [NS2 SEN]			Localization Cytoplasmic (HEK293T cells): −; Localization Nuclear (HEK293T cells): +++
VPQDAVSRSQRRGRT [H18]	H18: 1481-[…]-1495	H18: 1481-[…]-1495	
CC[C@H](C)[C@H](NC(=O)[C@H](CCCCN)NC(=O)[C@@H](NC(=O)[C@H](CCC(N)=O)NC(=O)[C@H](CCCNC(=N)N)NC(=O)[C@@H](NC(=O)[C@H](CCCCN)NC(=O)[C@H](CCCNC(=N)N)NC(=O)[C@H](CCCCN)NC(=O)[C@H](CCCCN)NC(=O)[C@H](CCCCN)NC(=O)[C@@H]1CCCN1)C(C)C)[C@@H](C)CC)C(=O)N[C@@H](Cc1c[nH]c2ccccc12)C(=O)N[C@@H](Cc1ccccc1)C(=O)N[C@@H](CCC(N)=O)C(=O)N[C@@H](CC(N)=O)C(=O)N[C@@H](CCCNC(=N)N)C(=O)N[C@@H](CCCNC(=N)N)C(=O)N[C@@H](CCSC)C(=O)N[C@@H](CCCCN)C(=O)N[C@@H](Cc1c[nH]c2ccccc12)C(=O)N[C@@H](CCCCN)C(=O)N[C@@H](CCCCN)C(=O)O [SV40 NLS, reference compound]			Kd (IPOA5): 0.0271 ± 0.00423 µM
QPRGRRQPIPKDRRS [A8, HCV genotype 1 array peptide, core residues 57-71]	A8: 57-[…]-71	A8: 57-[…]-71	
MSTNPKPQRKTKRNT [A1, HCV genotype 1 array peptide, core residues 1-15]	A1: 1-[…]-15	A1: 1-[…]-15	
VTRNADVIPARRRGD [F23]	F23: 1137-[…]-1151		
PRHRSRNVGKRQIKIWFQNRRMKWKK [Core NLS 4]			Kd (IPOA5): 0.518 ± 0.0286 µM; Kd (IPO5): 0.105 ± 0.0311 µM
RHRSRNVGKVIDTLT [A15, HCV genotype 1 array peptide, core residues 113-127]	A15: 113-[…]-127		
KAPTPPPRRRRTVGL [M3]	M3: 2321-[…]-2335		
GWVIVKKEMPSFIIPRQIKIWFQNRRMKWKK [NS2 SLN]			Localization Cytoplasmic (HEK293T cells): +++; Localization Nuclear (HEK293T cells): −
PIIFSPMEKKVIVWG [F3]		F3: 977-[…]-991	
SQRRGRTGRGRQGTY [H19]	H19: 1489-[…]-1503	H19: 1489-[…]-1503	
PARRRGDKRRQIKIWFQNRRMKWKK [NS3 NLS 1]			Kd (IPO5): 0.0338 ± 0.0056 µM
VTRRRRPPPRQIKIWFQNRRMKWKK [NS5A SLN]			Localization Cytoplasmic (HEK293T cells): +++; Localization Nuclear (HEK293T cells): −
FLLALLSCITVPVSA [A23, HCV genotype 1 array peptide, core residues 177-191]			Binding to XPO1 (XPO1 (CRM1)): A23: 177-[…]-191
